Tests used:
Assay in all cases: AUC of viability dose-response curve (% viability x log10 dose units); higher = less sensitive
Conditions in all cases: 48 h
[1] = system: P12-Ichikawa
Outline: (§1)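 Leukemia cells adapted to each medium were seeded at 500 or 1000 cells/well in 1536-well plates and dosed with library compounds in DMSO at 11 threefold doses from 47 μM to 0.79 nM for 48 h at 37°C. CellTiter-Glo One luminescence was normalised per plate to DMSO and cell-free wells, then fitted with a four-parameter log-logistic model over log10 doses. Area under the curve was taken from this fit by the trapezoidal rule, with curves above full viability scaled and curves failing quality control removed.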

[2] = system: NOMO1
Outline: as §1

[3] = system: SEM cells
Outline: as §1

[4] = RPMI 5 mM glucose + 10% dialyzed FBS

| Structure (SMILES) | AUC of viability dose-response curve ([1]; HPLM + 10% dialyzed FBS) | AUC of viability dose-response curve ([1]; RPMI 5 mM glucose + 10% FBS) | AUC of viability dose-response curve [1, 4] | AUC of viability dose-response curve ([2]; HPLM + 10% dialyzed FBS) | AUC of viability dose-response curve ([2]; RPMI 5 mM glucose + 10% FBS) | AUC of viability dose-response curve [2, 4] | AUC of viability dose-response curve ([3]; HPLM + 10% dialyzed FBS) | AUC of viability dose-response curve ([3]; RPMI 5 mM glucose + 10% FBS) | AUC of viability dose-response curve [3, 4] |
| --- | --- | --- | --- | --- | --- | --- | --- | --- | --- |
| Nc1ccccc1NC(=O)c1ccc(CNc2nccc(-c3cccnc3)n2)cc1 | 355 | 349 | 352 | 351 | 364 | 353 | 312 | 306 | 304 |
| CC(=O)N1CCN(c2ccc(OCc3nn(C)c(C)c3-c3cccc4c(CCCOc5cc(C)c(Cl)c(C)c5)c(C(=O)O)n(Cc5cccnc5)c34)cc2)CC1 | 461 | 459 | 467 | 469 | 471 | 457 | 453 | 413 | 441 |
| C[C@@H]1C[C@H]2[C@@H]3\C=C(C)/C4=C/C5=C(C[C@]4(C)[C@H]3[C@@H](O)C[C@]2(C)[C@@]1(O)C(=O)COC(C)=O)C=N[N]5C6=CC=CC=C6 | 323 | 264 | 251 | 442 | 411 | 449 | 304 | 277 | 258 |
| O=C/1\C=C(/OC(=C1)/C2=C3SC4=C(SC3=CC=C2)C=CC=C4)N5CCOCC5 |  |  |  |  |  |  | 417 | 409 | 411 |
| COc1cc2nccc(Oc3ccc(NC(=O)C4(C(=O)Nc5ccc(F)cc5)CC4)cc3)c2cc1OC | 436 | 440 | 427 | 433 | 457 | 442 |  |  |  |
| CCOC(=O)Nc1ccc(NCc2ccc(F)cc2)cc1N | 452 | 464 | 451 | 424 | 448 | 445 | 459 | 467 | 470 |
| COC(=O)N1CCN(Cc2cccc(NC(=O)Nc3ccc(C)nc3)c2F)CC1 | 458 | 434 | 408 | 418 | 434 | 434 | 470 | 464 | 448 |
| OC[C@H]1O[C@@H](Oc2ccc(O)cc2)[C@H](O)[C@@H](O)[C@@H]1O | 461 | 421 | 426 | 461 | 426 | 404 | 376 | 390 | 397 |
| Fc1cc(-c2cccc3ncc(-c4cnn(C5CCNCC5)c4)nc23)cc(F)c1CN1CCOCC1 | 407 | 423 | 412 | 378 | 409 | 412 | 379 | 378 | 385 |
| O=C(O)c1ccccc1C(=O)Nc1ccc(-c2ccccc2)cc1 | 468 | 461 | 469 | 462 | 463 | 460 | 449 | 457 | 456 |
| Fc1ccc(C(c2ccc(F)cc2)N2CCN(C/C=C/c3ccccc3)CC2)cc1 | 456 | 462 | 447 | 432 | 467 | 457 | 404 | 392 | 424 |
